These results are taken from patent publication US9518065B2, “IRAK inhibitors and uses thereof” (NIMBUS IRIS, INC., priority 2013, dated 2016).

As usually defined, the IC50 is the concentration needed to halve the response being measured.

Assay [1] relates to TNFα and IL8 production in THP-1 cells. Put plainly: LPS induced cytokine (TNFα and IL8) production assay in THP-1 cells. The assay is classed as cell-based. Conditions: Homo sapiens, 300 ng/mL LPS. As to the method: Provided compounds were also assayed in an LPS (Lipopolysacharide) or R848 (TLR-7 agonist) induced cytokine (TNFα and IL8) production assay in THP-1 cells, human white blood cells (hWBC), and whole blood. The exemplary protocol for this assay in THP-1 cells was as follows below.
THP-1 cells from ATCC (TIB-202) were cultured in RPMI Medium 1640 (Invitrogen, Cat No. A10491-01), 10% fetal bovine serum (Invitrogen, Cat No. 10099141, Lot No. 8172882) containing 100 U/mL Penicillin, 100 μg/mL streptomycin (Invitrogen, Cat No. 15140-122), and 50 uM 2-Mercaptoethanol (Invitrogen, Cat No. 21985023). LPS-EK ultra pure (Invivogen, Cat No. tlrl-peklps) was used to induce IL8 and TNFα production, that was detected in the cell culture supernatant by IL8 HTRF kit (Cisbio, Cat No. 62IL8PEB) and TNFα HTRF kit (Cisbio, Cat No. 62TNFPEB), as per manufacturer instructions. Cells were cultured in 96 well assay plates at 100,000 cells per well, and compounds diluted in final 0.3% DMSO were pre-incubated with cells for 1 hour prior to stimulation with 300 ng/mL LPS. Cytokine production in cell supernatant was measured at 5 hours for TNFα and IL8 production, and for 16 hours for IL8 production and assessment of cell viability.
The compound numbers correspond to the compound numbers in Table 1. […] “NA” stands for “not assayed.”

For another assay, the target named is T1, IRAK4 (Homo sapiens, UniProt Q9NWZ3).
T1 construct: purchased CARNA Bioscience 09-145
T1 sequence (Q9NWZ3 1-460): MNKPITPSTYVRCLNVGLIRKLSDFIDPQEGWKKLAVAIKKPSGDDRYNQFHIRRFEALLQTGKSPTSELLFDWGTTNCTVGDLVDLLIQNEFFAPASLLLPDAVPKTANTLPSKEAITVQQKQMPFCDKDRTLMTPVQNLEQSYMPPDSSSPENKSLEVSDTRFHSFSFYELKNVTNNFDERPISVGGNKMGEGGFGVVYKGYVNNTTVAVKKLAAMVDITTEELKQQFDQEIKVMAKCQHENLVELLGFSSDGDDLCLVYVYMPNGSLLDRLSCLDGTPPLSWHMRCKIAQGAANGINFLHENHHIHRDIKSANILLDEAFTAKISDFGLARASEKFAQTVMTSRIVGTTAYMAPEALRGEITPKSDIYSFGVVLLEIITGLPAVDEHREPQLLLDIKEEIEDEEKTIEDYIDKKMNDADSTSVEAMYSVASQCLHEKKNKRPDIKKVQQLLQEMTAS
Put plainly: IRAK-4 activity inhibition assay (Caliper). The assay is classed as biochemical. Conditions: 3.5 nM IRAK4, 37 μM ATP, 1.5 μM Peptide 8. Put shortly:
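Caliper mobility-shift assay: 3.5 nM IRAK4 preincubated 10 min with compound (10-point series, duplicates), then 1.5 μM peptide 8 and 37 μM ATP added in HEPES pH 7.5 with Mg2+/Mn2+ and DTT, 40 min at 28°C before EDTA stop. Percent inhibition from substrate conversion relative to DMSO and no-enzyme controls.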

[2] abbreviates: 5 hours, read-out: TNFα production IC50.
The mark [3] stands for this setting: 16 hours, read-out: IL8 (16 h) production IC50.

Read-outs that look alike come from different tables or passages of the source. A value given as a limit tells only on which side of the number the result lay.

On to `CCc1nc2c(N[C@H]3CC[C@H](N4CCOCC4)CC3)nc(Nc3cnn(CCCS(C)(=O)=O)c3)nc2s1` [Compound I-27, 2-ethyl-N5-(1-(3-(methylsulfonyl)propyl)-1H-pyrazol-4-yl)-N7-((1r,4r)-4-morpholinocyclohexyl)thiazolo[5,4-d]pyrimidine-5,7-diamine], for which the results for the 50% inhibitory concentration (IC50) (in assay [1] (setting [2]); in assay [1] (setting [3]); on IRAK4) were 250 to 500 nM, at most 250 nM and at most 1000 nM, respectively.
For `CCc1nc2c(N[C@H]3CC[C@H](N4CCOCC4)CC3)nc(Nc3cnn(CCOCCO)c3)nc2s1` [Compound I-28, 2-(2-(4-((2-ethyl-7-(((1r,4r)-4-morpholinocyclohexyl)amino)thia-zolo[5,4-d]pyrimidin-5-yl)amino)-1H-pyrazol-1-yl)ethoxy)ethan-1-ol] the same measures were 250 to 500 nM, at most 250 nM and at most 1000 nM.
For `CCc1nc2c(N[C@H]3CC[C@H](N4CCOCC4)CC3)nc(Nc3cnn(CCO)c3)nc2s1` [Compound I-29, 2-(4-((2-ethyl-7-(((1r,4r)-4-morpholinocyclohexyl)-amino)thiazolo[5,4-d]pyrimidin-5-yl)amino)-1H-pyrazol-1-yl)ethan-1-ol] the same measures were at least 500 nM, at most 250 nM and at most 1000 nM.
On to `Cc1nc2c(N[C@H]3CC[C@H](N4CCC(O)CC4)CC3)nc(Nc3cnn(C)c3)nc2s1` [Compound I-30, 1-((1r,4r)-4-((2-methyl-5-((1-methyl-1H-pyrazol-4-yl)amino)thiazolo[5,4-d]pyrimidin-7-yl)amino)cyclohexyl)piperidin-4-ol], for which the results for the 50% inhibitory concentration (IC50) (in assay [1] (setting [2]); against IRAK4) were at least 500 nM and at most 1000 nM, respectively.
Take `CCc1nc2c(N[C@H]3CC[C@H](N4CCOCC4)CC3)nc(Nc3cnn(C4CCC(O)CC4)c3)nc2s1` (some centres unmarked) [Compound I-32, 4-(4-((2-ethyl-7-(((1r,4r)-4-morpholinocyclohexyl)-amino)thiazolo[5,4-d]pyrimidin-5-yl)amino)-1H-pyrazol-1-yl)cyclohexan-1-ol]: the IC50 was at most 250 nM in assay [1] (setting [2]), at most 250 nM in assay [1] (setting [3]) and at most 1000 nM against IRAK4.
In the case of `CCc1nc2c(N[C@H]3CC[C@H](N4CCC5(CC4)CC5)CC3)nc(Nc3cnn(CCOCCO)c3)nc2s1` [Compound I-33, 2-(2-(4-((7-(((1r,4r)-4-(6-azaspiro[2.5]octan-6-yl)cyclohexyl)-amino)-2-ethylthiazolo[5,4-d]pyrimidin-5-yl)amino)-1H-pyrazol-1-yl)ethoxy)ethan-1-ol], the IC50 in assay [1] (setting [2]) was at most 250 nM; in assay [1] (setting [3]), at most 250 nM; against IRAK4, at most 1000 nM.
Consider `CCc1nc2c(N[C@H]3CC[C@H](N4CCOCC4)CC3)nc(Nc3cnn(CCOC)c3)nc2s1` [Compound I-34, 2-ethyl-N5-(1-(2-methoxyethyl)-1H-pyrazol-4-yl)-N7-((1r,4r)-4-morpholinocyclohexyl)thiazolo[5,4-d]pyrimidine-5,7-diamine], for which the IC50 is at most 250 nM in assay [1] (setting [2]), at most 250 nM in assay [1] (setting [3]) and at most 1000 nM at IRAK4.
`CC(O)c1nc2c(N[C@H]3CC[C@H](N4CCOCC4)CC3)nc(Nc3cnn(C)c3)nc2s1` (some centres unmarked) [Compound I-35, 1-(5-((1-methyl-1H-pyrazol-4-yl)amino)-7-(((1r,4r)-4-morpholino-cyclohexyl)amino)thiazolo[5,4-d]pyrimidin-2-yl)ethan-1-ol]: the concentration for half-maximal inhibition (IC50) in assay [1] (setting [2]) is at least 500 nM; in assay [1] (setting [3]) it was at least 500 nM; on IRAK4, at most 1000 nM.
On to `CCn1cc(Nc2nc(N[C@H]3CC[C@H](N4CCOCC4)CC3)c3nc(C)sc3n2)cn1` [Compound I-36, N5-(1-ethyl-1H-pyrazol-4-yl)-2-methyl-N7-((1r,4r)-4-morpholinocyclohexyl)thiazolo[5,4-d]pyrimidine-5,7-diamine], for which the IC50 in assay [1] (setting [2]) was 250 to 500 nM; in assay [1] (setting [3]), at most 250 nM; against IRAK4, at most 1000 nM.
Regarding `Cn1cc(Nc2nc(N[C@H]3CC[C@H](N4CCOCC4)CC3)c3nc(CO)sc3n2)cn1` [Compound I-37, (5-((1-methyl-1H-pyrazol-4-yl)amino)-7-(((1r,4r)-4-morpholino-cyclohexyl)amino)thiazolo[5,4-d]pyrimidin-2-yl)methanol], the figures for the IC50 (in assay [1] (setting [2]); in assay [1] (setting [3]); against IRAK4) were at least 500 nM, at least 500 nM and at most 1000 nM, respectively.
For the compound `Cc1nc2c(N[C@H]3CC[C@H](N4CCOCC4)CC3)nc(Nc3cnn(CCCS(C)(=O)=O)c3)nc2s1` [Compound I-38, 2-methyl-N5-(1-(3-(methylsulfonyl)propyl)-1H-pyrazol-4-yl)-N7-((1r,4r)-4-morpholinocyclohexyl)thiazolo[5,4-d]pyrimidine-5,7-diamine], the IC50 in assay [1] (setting [2]) is at least 500 nM; in assay [1] (setting [3]), 250 to 500 nM; on IRAK4, at most 1000 nM.
Taken in the same sequence, the figures for `Cc1nc2c(N[C@H]3CC[C@H](N4CCC5(CC4)CC5)CC3)nc(Nc3cnn(C)c3)nc2s1` [Compound I-39, N7-((1r,4r)-4-(6-azaspiro[2.5]octan-6-yl)cyclohexyl)-2-methyl-N5-(1-methyl-1H-pyrazol-4-yl)thiazolo[5,4-d]pyrimidine-5,7-diamine] were 250 to 500 nM, 250 to 500 nM and at most 1000 nM.
Taken in the same sequence, the figures for `Cc1nc2c(N[C@H]3CC[C@H](N4CCOCC4)CC3)nc(Nc3cnn(CCS(C)(=O)=O)c3)nc2s1` [Compound I-40, 2-methyl-N5-(1-(2-(methylsulfonyl)ethyl)-1H-pyrazol-4-yl)-N7-((1r,4r)-4-morpholinocyclohexyl)thiazolo[5,4-d]pyrimidine-5,7-diamine] were at most 250 nM, 250 to 500 nM and at most 1000 nM.
Taken in the same sequence, the figures for `Cc1nc2c(N[C@H]3CC[C@H](N4CCC5(CC4)COC5)CC3)nc(Nc3cnn(C)c3)nc2s1` [Compound I-42, N7-((1r,4r)-4-(2-oxa-7-azaspiro[3.5]nonan-7-yl)cyclohexyl)-2-methyl-N5-(1-methyl-1H-pyrazol-4-yl)thiazolo[5,4-d]pyrimidine-5,7-diamine] were 250 to 500 nM, 250 to 500 nM and at most 1000 nM.
